Experiment: mn = molality of the nth substance listed, in mol/kg
Settings: 101 kPa, Liquid, Alternating current cell with electrodes

O=[N+]([O-])[O-].O=[N+]([O-])[O-].[Cu+2] [copper dinitrate] + O
electrical conductivity [S/m]
Settings | 278.1 K | 283.1 K | 298.15 K | 308.15 K | 318.15 K | 343.15 K | 363.15 K
m1 = 0.0001 | 0.01101 | 0.01227 | – | – | – | 0.02684 | 0.0318
m1 = 0.0011 | 0.02486 | 0.02823 | 0.0388 | 0.04633 | 0.05303 | 0.07303 | 0.08992
m1 = 0.01032 | 0.1433 | 0.1641 | 0.2308 | 0.2795 | 0.3256 | 0.4628 | 0.5792
m1 = 0.1108 | 1.207 | 1.382 | 1.935 | 2.333 | 2.746 | 3.918 | 4.838
m1 = 0.3459 | 3.219 | 3.68 | 5.093 | 6.092 | 7.235 | 10.34 | 12.57

O=[N+]([O-])[O-].O=[N+]([O-])[O-].[Zn+2] [nitric acid, zinc salt] + O
electrical conductivity [S/m]
Settings | 278.15 K | 283.15 K | 298.15 K | 308.15 K | 318.15 K | 343.15 K | 363.15 K
m1 = 8.7e-05 | 0.001368 | 0.001579 | 0.002248 | 0.002744 | 0.003188 | 0.004549 | 0.00575
m1 = 0.00127 | 0.01814 | 0.02081 | 0.02942 | 0.03606 | 0.04205 | 0.06014 | 0.07615
m1 = 0.00874 | 0.1162 | 0.1334 | 0.1891 | 0.2299 | 0.2687 | 0.383 | 0.4824
m1 = 0.1275 | 1.391 | 1.592 | 2.217 | 2.658 | 3.118 | 4.402 | 5.442
m1 = 0.3325 | 3.111 | 3.653 | 4.931 | 5.906 | 6.986 | 9.937 | 11.83
